Several values for one entry are separate records, joined by “and”; a condition that tells them apart may be missing. Equal values may be shown once. Toxic doses and inconclusive results are not listed. Rule as the data show it: active = T/C of 150% or more; inactive = T/C below 125%.
Test system: L1210 leukemia ip in BDF1 mice, survival T/C
Test: NCI In Vivo Anticancer Drug Screen. Data for tumor model L1210 Leukemia (intraperitoneal) in B6D2F1 (BDF1) mice
Conditions: endpoint: mean survival time, higher = longer survival
Summary of the method: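 Transplanted-tumor mice were given test agent; controls received vehicle only. Survival readings from the two groups were divided (treated over control).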

[1] = dose: 100.0 mg/kg/injection, schedule: Q04DX003 (ip), vehicle: Klucel (hydroxypropylcellulose) (HPC)
[2] = dose: 200.0 mg/kg/injection, schedule: Q04DX003 (ip), vehicle: Klucel (hydroxypropylcellulose) (HPC)
[3] = dose: 400.0 mg/kg/injection, schedule: Q04DX003 (ip), vehicle: Klucel (hydroxypropylcellulose) (HPC)
[4] = dose: 100.0 mg/kg/injection, schedule: Q04DX002 (ip), vehicle: Klucel (hydroxypropylcellulose) (HPC)
[5] = dose: 100.0 mg/kg/injection, schedule: Q01DX009 (ip), vehicle: Klucel (hydroxypropylcellulose) (HPC)
[6] = dose: 200.0 mg/kg/injection, schedule: Q01DX009 (ip), vehicle: Klucel (hydroxypropylcellulose) (HPC)
[7] = dose: 200.0 mg/kg/injection, schedule: Q04DX002 (ip), vehicle: Klucel (hydroxypropylcellulose) (HPC)
[8] = dose: 400.0 mg/kg/injection, schedule: Q01DX009 (ip), vehicle: Klucel (hydroxypropylcellulose) (HPC)
[9] = dose: 400.0 mg/kg/injection, schedule: Q04DX002 (ip), vehicle: Klucel (hydroxypropylcellulose) (HPC)
[10] = dose: 12.5 mg/kg/injection, schedule: Q04DX003 (ip), vehicle: saline with Tween-80
[11] = dose: 25.0 mg/kg/injection, schedule: Q04DX003 (ip), vehicle: saline with Tween-80
[12] = dose: 50.0 mg/kg/injection, schedule: Q04DX003 (ip), vehicle: saline with Tween-80
[13] = dose: 50.0 mg/kg/injection, schedule: Q01DX001 (ip), vehicle: carboxymethylcellulose (CMC)
[14] = dose: 100.0 mg/kg/injection, schedule: Q01DX001 (ip), vehicle: carboxymethylcellulose (CMC)
[15] = dose: 200.0 mg/kg/injection, schedule: Q01DX001 (ip), vehicle: carboxymethylcellulose (CMC)
[16] = dose: 400.0 mg/kg/injection, schedule: Q01DX001 (ip), vehicle: carboxymethylcellulose (CMC)
[17] = dose: 100.0 mg/kg/injection, schedule: Q01DX001 (ip), vehicle: saline
[18] = dose: 200.0 mg/kg/injection, schedule: Q01DX001 (ip), vehicle: saline
[19] = dose: 400.0 mg/kg/injection, schedule: Q01DX001 (ip), vehicle: saline
[20] = dose: 100.0 mg/kg/injection, schedule: Q04DX003 (ip), vehicle: saline
[21] = dose: 200.0 mg/kg/injection, schedule: Q04DX003 (ip), vehicle: saline
[22] = dose: 400.0 mg/kg/injection, schedule: Q04DX003 (ip), vehicle: saline

Measured: T/C

CC(=O)C(C(C)=O)c1cc(NS(=O)(=O)c2ccccc2)ccc1O
inactive: dose: 100.0 mg/kg/injection, schedule: Q01DX001 (ip), vehicle: saline with Tween-80 100 % of control | dose: 200.0 mg/kg/injection, schedule: Q01DX001 (ip), vehicle: saline with Tween-80 104 % of control | dose: 400.0 mg/kg/injection, schedule: Q01DX001 (ip), vehicle: saline with Tween-80 89 % of control

O=[N+]([O-])c1ccc(Cl)c(C(=S)N2CCCCC2)c1
inactive: [1] 99 % of control | [2] 96 % of control | [3] 96 % of control

COC1OC2CSC(=S)OC2C(OC)C1OC (stereo unspecified)
inactive: dose: 25.0 mg/kg/injection, schedule: Q04DX002 (ip), vehicle: saline 100 % of control | dose: 50.0 mg/kg/injection, schedule: Q04DX002 (ip), vehicle: saline 92 % of control | dose: 100.0 mg/kg/injection, schedule: Q04DX002 (ip), vehicle: saline 103 % of control | dose: 200.0 mg/kg/injection, schedule: Q04DX002 (ip), vehicle: saline 102 % of control | dose: 400.0 mg/kg/injection, schedule: Q04DX002 (ip), vehicle: saline 102 % of control

O=C1C2C3CCC(O3)C2C(=O)N1C(=O)N1C(=O)C2C3CCC(O3)C2C1=O (stereo unspecified)
inactive: dose: 25.0 mg/kg/injection, schedule: Q04DX002 (ip), vehicle: Klucel (hydroxypropylcellulose) (HPC) 101 % of control | dose: 50.0 mg/kg/injection, schedule: Q04DX002 (ip), vehicle: Klucel (hydroxypropylcellulose) (HPC) 94 % of control | [4] 111 % of control and 89 % of control

CCCCCCOP1(=O)C=C(C)CC1 (stereo unspecified)
inactive: dose: 100.0 mg/kg/injection, schedule: Q04DX003 (ip), vehicle: saline with Tween-80 93 % of control | dose: 200.0 mg/kg/injection, schedule: Q04DX003 (ip), vehicle: saline with Tween-80 90 % of control

NC(=O)CNC(c1ccccc1)C(O)c1ccccc1 (stereo unspecified)
inactive: [5] 96 % of control | [4] 91 % of control | [6] 98 % of control | [7] 102 % of control | [8] 93 % of control | [9] 102 % of control

Cc1nc2ccccc2nc1CBr
inactive: dose: 3.2 mg/kg/injection, schedule: Q01DX009 (ip), vehicle: Klucel (hydroxypropylcellulose) (HPC) 103 % of control | dose: 6.3 mg/kg/injection, schedule: Q01DX009 (ip), vehicle: Klucel (hydroxypropylcellulose) (HPC) 100 % of control | dose: 12.5 mg/kg/injection, schedule: Q01DX009 (ip), vehicle: Klucel (hydroxypropylcellulose) (HPC) 105 % of control | [10] 98 % of control | dose: 25.0 mg/kg/injection, schedule: Q01DX009 (ip), vehicle: Klucel (hydroxypropylcellulose) (HPC) 97 % of control | [11] 89 % of control | dose: 50.0 mg/kg/injection, schedule: Q01DX009 (ip), vehicle: Klucel (hydroxypropylcellulose) (HPC) 102 % of control | [12] 98 % of control

COc1ccc(/C=C(/C)C(=O)c2ccccc2)cc1
inactive: [1] 98 % of control | [2] 88 % of control | [3] 103 % of control

CN1CCC(CN2c3ccccc3Sc3ccccc32)C1 (stereo unspecified)
inactive: dose: 3.12 mg/kg/injection, schedule: Q01DX009 (ip), vehicle: saline 95 % of control | dose: 6.25 mg/kg/injection, schedule: Q01DX009 (ip), vehicle: saline 107 % of control | dose: 12.5 mg/kg/injection, schedule: Q01DX009 (ip), vehicle: saline 101 % of control | dose: 25.0 mg/kg/injection, schedule: Q01DX009 (ip), vehicle: saline 101 % of control

O=[N+]([O-])c1ccccc1/C=N/Nc1nnc(N/N=C/c2ccccc2[N+](=O)[O-])c2ccccc12
inactive: [13] 104 % of control | [14] 93 % of control | [15] 98 % of control | [16] 98 % of control

COc1ccc(COC(=O)Nc2ccc(Br)cc2)c(OC)c1
inactive: [5] 98 % of control | [6] 104 % of control | [8] 101 % of control

O=C(O)CCc1ccc([N+](=O)[O-])cc1Cl
inactive: [1] 96 % of control | [2] 101 % of control | [3] 101 % of control

O=C(O)/C=C/C(=O)Nc1ccc(Br)c(Cl)c1
inactive: dose: 100.0 mg/kg/injection, schedule: Q01DX009 (ip), vehicle: saline with Tween-80 86 % of control

NC(=O)C1C(=O)OC2(CCCCC2)C1c1ccccc1 (stereo unspecified)
inactive: [17] 89 % of control | [18] 87 % of control | [19] 94 % of control

O=[N+]([O-])c1ccc(O)c(I)c1
inactive: [17] 97 % of control | [20] 100 % of control | [18] 98 % of control | [21] 105 % of control | [19] 95 % of control | [22] 102 % of control

COc1ccc2c(c1)CCNC2CCO (stereo unspecified)
inactive: [20] 103 % of control

O=C(Nc1cccc(Cl)c1)Nc1ccccc1C(F)(F)F
inactive: [13] 104 % of control | [14] 106 % of control | [15] 106 % of control | [16] 101 % of control

OCP(CO)CO.[Cl][Hg][Cl]
inactive: dose: 30.0 mg/kg/injection, schedule: Q01DX001 (ip), vehicle: saline 119 % of control

[O-][N+]1=CCCC1
inactive: dose: 100.0 mg/kg/injection, schedule: Q01DX009 (ip), vehicle: saline 89 % of control | [20] 104 % of control | dose: 200.0 mg/kg/injection, schedule: Q01DX009 (ip), vehicle: saline 91 % of control | [21] 107 % of control | dose: 400.0 mg/kg/injection, schedule: Q01DX009 (ip), vehicle: saline 92 % of control | [22] 105 % of control

CCCCCCCCCCCCCCCCCC[N+](C)(C)c1nc(Cl)nc(Cl)n1
inactive: dose: 13.0 mg/kg/injection, schedule: Q01DX015 (ip), vehicle: carboxymethylcellulose (CMC) 98 % of control | dose: 25.0 mg/kg/injection, schedule: Q01DX015 (ip), vehicle: carboxymethylcellulose (CMC) 92 % of control | dose: 37.5 mg/kg/injection, schedule: Q04DX003 (ip), vehicle: Klucel (hydroxypropylcellulose) (HPC) 103 % of control | dose: 50.0 mg/kg/injection, schedule: Q01DX015 (ip), vehicle: carboxymethylcellulose (CMC) 93 % of control | dose: 75.0 mg/kg/injection, schedule: Q04DX003 (ip), vehicle: Klucel (hydroxypropylcellulose) (HPC) 97 % of control | [14] 92 % of control | dose: 100.0 mg/kg/injection, schedule: Q01DX015 (ip), vehicle: carboxymethylcellulose (CMC) 93 % of control | [15] 97 % of control

c1ccc2c(c1)ccc1[nH]c3ccccc3c12
inactive: [17] 120 % of control | [18] 96 % of control | [19] 93 % of control

Cc1ccnc2c(N)cccc12
inactive: dose: 75.0 mg/kg/injection, schedule: Q01DX001 (ip), vehicle: saline 98 % of control

O=C(Nc1ccccc1F)OCCOc1ccccc1
inactive: dose: 100.0 mg/kg/injection, schedule: Q01DX001 (ip), vehicle: Klucel (hydroxypropylcellulose) (HPC) 97 % of control | [5] 95 % of control and 97 % of control | [4] 98 % of control and 115 % of control | dose: 200.0 mg/kg/injection, schedule: Q01DX001 (ip), vehicle: Klucel (hydroxypropylcellulose) (HPC) 97 % of control | [6] 95 % of control and 102 % of control | [7] 106 % of control and 115 % of control | dose: 400.0 mg/kg/injection, schedule: Q01DX001 (ip), vehicle: Klucel (hydroxypropylcellulose) (HPC) 94 % of control | [8] 95 % of control and 103 % of control | [9] 100 % of control and 103 % of control

OCC1=CCc2ccccc21
inactive: dose: 100.0 mg/kg/injection, schedule: Q04DX002 (ip), vehicle: other 93 % of control | dose: 200.0 mg/kg/injection, schedule: Q04DX002 (ip), vehicle: other 93 % of control | dose: 400.0 mg/kg/injection, schedule: Q04DX002 (ip), vehicle: other 93 % of control

CCCCCCCCCCCCSCCCN
inactive: [10] 96 % of control | [11] 93 % of control | [12] 96 % of control
